Assay results reported in patent US20030032640A1, “Novel composition” (priority 2000, published 2003).
Counter-ions that a name gives are not always drawn.

How the values were obtained:
5HT4 receptor = 5HT4 receptor (Homo sapiens, UniProt Q13639); details: from the cited literature; cited from earlier work
[1] = Bulk density of the small-particle size HCl salt; format: physicochemical; details: densifies on addition of water
Excerpt: The fourth aspect of the newly recognised problem is that the small-particle size SB-207266 HCl salt has a low bulk density, densifying on the addition of water. This means that less material can be added to a mixer of fixed volume, leading to a less efficient manufacturing process as large volumes of equipment have to be used for relatively small volumes of drug (smaller throughput in plant).

[2] = Cohesiveness and flowability of drug substance and granules; format: physicochemical; details: HCl salt crystallised from ethanol/IMS with C5-C10 hydrocarbon
Excerpt: The second aspect of the newly recognised problem, is the discovery that the SB 207266 HCl salt produced by these processes is very cohesive and has poor flowability/flow characteristics.

[3] = Particle size (DV 90/50/10) of batches of SB-207266-A made by the Description 1 process; format: physicochemical; details: for DV 10 / DV 50 / DV 90: individual batch, hydrochloride; for DV 10: 10% by volume of the material is less than this size; for DV 50: 50% by volume of the material is less than this size; for DV 90: 90% by volume of the material is less than this size
Excerpt: The first aspect of the newly recognised problem is that such processes produce the SB 207266 hydrochloride salt in the form of particles of extremely small particle size.
DV 90, DV 50 and DV 10 respectively mean that 90%, 50% and 10% by volume of the material is less than the micron size specified.

Chain of 5HT4 receptor (Q13639 whole entry): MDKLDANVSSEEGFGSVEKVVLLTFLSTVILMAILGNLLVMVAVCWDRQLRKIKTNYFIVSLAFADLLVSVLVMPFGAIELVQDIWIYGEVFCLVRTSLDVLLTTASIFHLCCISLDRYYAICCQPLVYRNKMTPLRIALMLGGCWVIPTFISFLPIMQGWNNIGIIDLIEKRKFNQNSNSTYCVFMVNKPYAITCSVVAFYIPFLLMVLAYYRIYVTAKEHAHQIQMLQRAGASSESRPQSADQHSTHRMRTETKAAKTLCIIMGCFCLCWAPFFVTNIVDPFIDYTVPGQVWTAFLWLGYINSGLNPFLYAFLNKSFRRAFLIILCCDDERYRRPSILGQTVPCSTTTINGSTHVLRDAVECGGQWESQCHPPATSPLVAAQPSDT

SMILES: CCCCN1CCC(CNC(=O)c2c3n(c4ccccc24)CCCO3)CC1 [SB 207266, N-[(1-^nbutyl-4-piperidinyl)methyl]-3,4-dihydro-2H-[1,3]oxazino[3,2-a]indole-10-carboxamide]
- selectivity for the 5HT4 receptor over other 5HT receptors (5HT4 receptor): highly selective

SMILES: CCCCN1CCC(CNC(=O)c2c3n(c4ccccc24)CCCO3)CC1 [SB-207266-A, N-[(1-butyl-4-piperidinyl)methyl]-3,4-dihydro-2H-[1,3]-oxazino[3,2-α]indole-10-carboxamide hydrochloride]
- bulk density [1]: low
- cohesiveness [2]: very cohesive
- flowability/flow characteristics [2]: poor
- DV 10, average of batches ([3]; average of the five batches): 1.5 μm
- DV 50, average of batches ([3]; average of the five batches): 5.8 μm
- DV 90, average of batches ([3]; average of the five batches): 14.4 μm
- DV 10 ([3]; listed as BDC-G-02C): 1.5 μm
- DV 10 ([3]; listed as BDC-G-03C): 1.8 μm
- DV 10 ([3]; listed as BDC-G-04C): 1.4 μm
- DV 10 ([3]; listed as BDC-G-05C): 1.5 μm
- DV 10 ([3]; listed as BDC-H-01C): 1.4 μm
- DV 50 ([3]; listed as BDC-G-02C): 5.7 μm
- DV 50 ([3]; listed as BDC-G-03C): 6.8 μm
- DV 50 ([3]; listed as BDC-G-04C): 5.3 μm
- DV 50 ([3]; listed as BDC-G-05C): 5.8 μm
- DV 50 ([3]; listed as BDC-H-01C): 5.3 μm
- DV 90 ([3]; listed as BDC-G-02C): 13.8 μm
- DV 90 ([3]; listed as BDC-G-03C): 16.4 μm
- DV 90 ([3]; listed as BDC-G-04C): 14.4 μm
- DV 90 ([3]; listed as BDC-G-05C): 14.6 μm
- DV 90 ([3]; listed as BDC-H-01C): 12.8 μm
